Data as given in paper PMC9274004, “Deciphering the Molecular Interaction Between the Adhesion G Protein-Coupled Receptor ADGRV1 and its PDZ-Containing Regulator PDZD7” (Frontiers in Molecular Biosciences, 2022).
Where no end group is shown, it is not given here.

Legend:
Format in all cases: binding, murine
[1] = target: T1, PDZD7 PDZ1 (81-167) (Mus musculus, UniProt E9Q9W7); assay: NMR titration of PDZ1 with ADGRV1 ligands; conditions: NMR titration (1H-15N HSQC CSP), Tris HCl pH 7.5 (50 mM), 25°C; SD of Kd over at least ten shifting peaks
T1 construct: (Uniprot entry E9Q9W7-1); PDZ1 (81-167); GST (followed by TEV site) (N, cleaved yes); made in house; host or cells: E. coli BL21 DE3
Procedure: (§1) All experiments were recorded at 25°C on a Bruker 800 MHz spectrometer equipped with a triple resonance ^1H{^13C/^15N} cryoprobe. The ^1H, ^15 N and ^13C backbone resonances assignment of PDZ1ext was carried out using 3D HNCA, HNCACB, HNCO, HNCOCA experiments (Tris HCl buffer adjusted to pH 6). The 2D ^1H-^15N HSQC spectra used to compare PDZ1, PDZ1ext, PDZ2 and PDZ2ext were recorded in Tris HCl pH 7.5 (50 mM). The 2D ^1H-^15N HSQC spectra used to compare PDZ1ext, PDZ2ext and P1P2 were recorded in Phosphate Buffer pH 6.5 (50 mM). Titration experiments of PDZ1 (WT), PDZ1ext (WT) and PDZ1ext (G103R) against ADGRV1pbm peptide were performed in Tris HCl pH 7.5 (50 mM). Averaged Chemical Shifts Perturbations (CSP) were calculated as: Δδavg = ((Δδ(^1H))^2+(Δδ(^15N)*0.159)^2)^½. […]
(§2) We monitored the interaction between PDZD7 constructs and a peptide (ADGRV1pbm) corresponding to the last 13 residues of ADGRV1, encompassing its PBM (sequence VELRRIPIADTHL-COOH; PBM underlined). We measured apparent Kd values of our constructs towards ADGRV1pbm using several biophysical methods (NMR, fluorescence, MicroScale Thermophoresis (MST)) (Table 1; Supplementary Figure S3–S5). […]

[2] = target: T2, PDZD7 PDZ1ext (81-192) (Mus musculus, UniProt E9Q9W7); assay: NMR titration of PDZ1ext with ADGRV1 ligands; conditions: NMR titration (1H-15N HSQC CSP), Tris HCl pH 7.5 (50 mM), 25°C; SD of Kd over at least ten shifting peaks; read-out: Kd
T2 construct: PDZ1 (81-167), PDZ1ext (81-192); GST (followed by TEV site) (N, cleaved yes); made in house; host or cells: E. coli BL21 DE3
T2 sequence (E9Q9W7 81-192): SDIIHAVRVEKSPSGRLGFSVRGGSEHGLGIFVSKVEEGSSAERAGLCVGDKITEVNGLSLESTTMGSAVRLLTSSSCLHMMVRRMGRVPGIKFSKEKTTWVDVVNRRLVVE
Procedure: as §1, §2

[3] = target: T3, PDZD7 N-PDZ1ext (Mus musculus, UniProt E9Q9W7); assay: NMR titration of N-PDZ1ext with ADGRV1 ligands; conditions: NMR titration, 25°C; SD over at least ten shifting peaks; read-out: Kd (Peptide)
T3 construct: including the N-terminus of the protein (N-PDZ1ext construct; M1-E192); GST (followed by TEV site) (N, cleaved yes); made in house; host or cells: E. coli BL21 DE3
T3 sequence (E9Q9W7 1-192): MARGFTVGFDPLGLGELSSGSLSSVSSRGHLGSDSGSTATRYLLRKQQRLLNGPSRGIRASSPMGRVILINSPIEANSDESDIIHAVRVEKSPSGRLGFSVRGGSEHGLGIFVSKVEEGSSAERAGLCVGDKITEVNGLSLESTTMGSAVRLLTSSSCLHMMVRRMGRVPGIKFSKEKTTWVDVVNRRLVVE
Procedure: All experiments were recorded at 25°C on a Bruker 800 MHz spectrometer equipped with a triple resonance ^1H{^13C/^15N} cryoprobe. The ^1H, ^15 N and ^13C backbone resonances assignment of PDZ1ext was carried out using 3D HNCA, HNCACB, HNCO, HNCOCA experiments (Tris HCl buffer adjusted to pH 6). The 2D ^1H-^15N HSQC spectra used to compare PDZ1, PDZ1ext, PDZ2 and PDZ2ext were recorded in Tris HCl pH 7.5 (50 mM). The 2D ^1H-^15N HSQC spectra used to compare PDZ1ext, PDZ2ext and P1P2 were recorded in Phosphate Buffer pH 6.5 (50 mM). Titration experiments of PDZ1 (WT), PDZ1ext (WT) and PDZ1ext (G103R) against ADGRV1pbm peptide were performed in Tris HCl pH 7.5 (50 mM). Averaged Chemical Shifts Perturbations (CSP) were calculated as: Δδavg = ((Δδ(^1H))^2+(Δδ(^15N)*0.159)^2)^½. For the determination of dissociation constants (Kd) of each peptide/PDZ interaction, averaged CSP δavg was plotted as a function of the molar ratio (peptide/PDZ) for several peaks and fitted using nonlinear regression and assuming a simple complex formation model.
The P1P2 tandem of PDZD7 is preceded by 80 residues with no predicted secondary or tertiary structure, but which could contribute to the interaction with ADGRV1. […] We first aimed at identifying potential secondary structures in both PDZD7 N-terminal region and ADGRV1 cytoplasmic domain. To this end, we produced both an extended PDZ1ext construct, including the N-terminus of the protein (N-PDZ1ext construct; M1-E192) and the whole ADGRV1 cytoplasmic domain of 152 residues.
On the overlay of PDZ1ext and N-PDZ1ext HSQC spectra, there is no significant chemical shift changes on PDZ1ext due to the presence of the N-terminal region (CSPs <0.04 ppm). […] We used the entire cytoplasmic domain of ADGRV1 as partner of PDZD7 in NMR and fluorescence titrations experiments. […] Finally, we measured Kd values in the few micromolar range between the tandem P1P2 and the whole cytoplasmic domain and the last 13 residues of ADGRV1 by fluorescence experiments.

- Kd [1]: 1310 µM
- Kd [2]: 47 ± 6 µM
- Kd [3]: 270 ± 21 µM
Sequence: VELRRIPIADTHL [ADGRV1pbm]
